The text below walks through data of patent publication US10004732B2 (Novartis AG, priority 2014, dated 2018).

In general, IC50 refers to the concentration needed to halve the response being measured.

SMILES strings stand for the structures. Like-named read-outs stand apart in the source and are kept apart here.

One experiment has as its target PI 4-kinase beta (Homo sapiens, UniProt Q9UBF8). The experiment is described as follows: Kinase Glo Luminescent Kinase Assay (Kglo), assay D. In kind it is biochemical. As to conditions: read-out: Assay D PI4Kβ IC50. On the technique in general: Kinase-Glo measures the ATP left after a reaction by luminescence.
For the next experiment, the target named is Vps34 (Homo sapiens, UniProt Q8NEB9). The experiment is described as follows: Kinase Glo Luminescent Kinase Assay (Kglo), assay C. In kind it is biochemical. The conditions noted are these: read-out: Assay C VPS34 IC50.
The next experiment has as its target mTOR (Homo sapiens, UniProt P42345). Put plainly: Lanthascreen kinase binding assay, assay G. As to conditions: read-out: Assay G mTOR IC50. Background: TR-FRET usually uses a lanthanide donor and a delayed reading to cut background.
A further experiment concerns the target PI 3-kinase beta (Homo sapiens, UniProt P42338). The experiment is described as follows: Kinase Glo Luminescent Kinase Assay (Kglo), assay B. In kind it is biochemical. As to conditions: read-out: Assay B PI3Kβ IC50.
Another experiment concerns the target PI 3-kinase delta (Homo sapiens, UniProt O00329). Put plainly: TR-FRET Adapta assay, assay F.
A further experiment addresses PI 3-kinase gamma (Homo sapiens, UniProt P48736). Put plainly: TR-FRET Adapta assay, assay E. In kind it is biochemical. As to conditions: read-out: Assay E PI3Kγ IC50.
Another experiment has as its target PI 3-kinase alpha (Homo sapiens, UniProt P42336). The experiment is described as follows: Kinase Glo Luminescent Kinase Assay (Kglo), assay A. As to conditions: read-out: Assay A PI3Kα IC50. In kind it is biochemical.

Sequence of PI 3-kinase delta (O00329 whole entry): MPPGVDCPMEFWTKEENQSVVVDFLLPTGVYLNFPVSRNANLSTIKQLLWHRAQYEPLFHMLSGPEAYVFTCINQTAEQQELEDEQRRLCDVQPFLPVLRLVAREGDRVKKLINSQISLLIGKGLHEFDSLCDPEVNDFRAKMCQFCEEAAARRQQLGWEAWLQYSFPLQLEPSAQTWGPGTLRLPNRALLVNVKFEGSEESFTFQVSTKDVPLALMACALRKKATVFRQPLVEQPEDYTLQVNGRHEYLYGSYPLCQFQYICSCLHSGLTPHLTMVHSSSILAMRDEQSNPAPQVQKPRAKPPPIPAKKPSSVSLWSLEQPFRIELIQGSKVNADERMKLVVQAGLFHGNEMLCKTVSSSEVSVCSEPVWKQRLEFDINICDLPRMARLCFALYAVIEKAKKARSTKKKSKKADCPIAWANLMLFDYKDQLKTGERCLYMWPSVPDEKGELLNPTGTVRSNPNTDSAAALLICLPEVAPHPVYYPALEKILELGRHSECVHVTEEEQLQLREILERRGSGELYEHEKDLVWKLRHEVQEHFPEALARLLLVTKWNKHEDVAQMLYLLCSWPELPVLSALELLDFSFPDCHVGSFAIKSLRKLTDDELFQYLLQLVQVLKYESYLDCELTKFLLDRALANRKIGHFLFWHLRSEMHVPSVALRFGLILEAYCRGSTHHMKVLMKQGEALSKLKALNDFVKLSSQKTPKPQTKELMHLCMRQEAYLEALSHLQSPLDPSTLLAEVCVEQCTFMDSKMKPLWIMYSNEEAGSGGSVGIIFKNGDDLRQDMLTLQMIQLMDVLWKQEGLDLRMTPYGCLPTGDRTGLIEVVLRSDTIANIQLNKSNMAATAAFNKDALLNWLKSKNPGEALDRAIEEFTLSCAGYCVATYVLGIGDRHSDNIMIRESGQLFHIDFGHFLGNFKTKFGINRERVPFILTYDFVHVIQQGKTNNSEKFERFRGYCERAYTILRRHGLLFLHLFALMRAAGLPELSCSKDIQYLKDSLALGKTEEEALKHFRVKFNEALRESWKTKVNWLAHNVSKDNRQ
Sequence of PI 3-kinase delta (P27986 461-568 partner): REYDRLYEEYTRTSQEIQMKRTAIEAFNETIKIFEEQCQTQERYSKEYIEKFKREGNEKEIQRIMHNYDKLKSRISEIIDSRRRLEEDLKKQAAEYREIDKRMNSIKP
Sequence of PI 4-kinase beta (Q9UBF8 whole entry): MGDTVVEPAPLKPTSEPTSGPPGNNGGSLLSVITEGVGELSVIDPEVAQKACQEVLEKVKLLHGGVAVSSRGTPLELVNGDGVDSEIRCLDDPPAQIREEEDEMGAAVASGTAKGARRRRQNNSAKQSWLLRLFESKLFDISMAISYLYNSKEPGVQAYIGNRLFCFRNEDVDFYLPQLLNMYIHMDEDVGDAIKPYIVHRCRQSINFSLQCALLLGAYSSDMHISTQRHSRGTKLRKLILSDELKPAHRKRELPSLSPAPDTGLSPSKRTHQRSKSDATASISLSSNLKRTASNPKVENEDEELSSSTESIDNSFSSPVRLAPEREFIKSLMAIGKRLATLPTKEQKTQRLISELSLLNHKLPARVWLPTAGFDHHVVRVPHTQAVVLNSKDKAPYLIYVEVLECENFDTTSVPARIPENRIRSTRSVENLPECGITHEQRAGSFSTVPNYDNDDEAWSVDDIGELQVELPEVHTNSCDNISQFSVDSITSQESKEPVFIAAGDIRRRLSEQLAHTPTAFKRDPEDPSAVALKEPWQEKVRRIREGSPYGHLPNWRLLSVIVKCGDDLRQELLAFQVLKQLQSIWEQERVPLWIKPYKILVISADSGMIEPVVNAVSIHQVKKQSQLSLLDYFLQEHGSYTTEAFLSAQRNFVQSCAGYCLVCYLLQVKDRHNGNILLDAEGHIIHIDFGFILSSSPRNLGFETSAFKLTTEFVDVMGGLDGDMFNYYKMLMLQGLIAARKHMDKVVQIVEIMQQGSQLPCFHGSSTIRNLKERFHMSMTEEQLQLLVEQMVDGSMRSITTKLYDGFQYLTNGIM
Sequence of PI 3-kinase gamma (P48736 whole entry): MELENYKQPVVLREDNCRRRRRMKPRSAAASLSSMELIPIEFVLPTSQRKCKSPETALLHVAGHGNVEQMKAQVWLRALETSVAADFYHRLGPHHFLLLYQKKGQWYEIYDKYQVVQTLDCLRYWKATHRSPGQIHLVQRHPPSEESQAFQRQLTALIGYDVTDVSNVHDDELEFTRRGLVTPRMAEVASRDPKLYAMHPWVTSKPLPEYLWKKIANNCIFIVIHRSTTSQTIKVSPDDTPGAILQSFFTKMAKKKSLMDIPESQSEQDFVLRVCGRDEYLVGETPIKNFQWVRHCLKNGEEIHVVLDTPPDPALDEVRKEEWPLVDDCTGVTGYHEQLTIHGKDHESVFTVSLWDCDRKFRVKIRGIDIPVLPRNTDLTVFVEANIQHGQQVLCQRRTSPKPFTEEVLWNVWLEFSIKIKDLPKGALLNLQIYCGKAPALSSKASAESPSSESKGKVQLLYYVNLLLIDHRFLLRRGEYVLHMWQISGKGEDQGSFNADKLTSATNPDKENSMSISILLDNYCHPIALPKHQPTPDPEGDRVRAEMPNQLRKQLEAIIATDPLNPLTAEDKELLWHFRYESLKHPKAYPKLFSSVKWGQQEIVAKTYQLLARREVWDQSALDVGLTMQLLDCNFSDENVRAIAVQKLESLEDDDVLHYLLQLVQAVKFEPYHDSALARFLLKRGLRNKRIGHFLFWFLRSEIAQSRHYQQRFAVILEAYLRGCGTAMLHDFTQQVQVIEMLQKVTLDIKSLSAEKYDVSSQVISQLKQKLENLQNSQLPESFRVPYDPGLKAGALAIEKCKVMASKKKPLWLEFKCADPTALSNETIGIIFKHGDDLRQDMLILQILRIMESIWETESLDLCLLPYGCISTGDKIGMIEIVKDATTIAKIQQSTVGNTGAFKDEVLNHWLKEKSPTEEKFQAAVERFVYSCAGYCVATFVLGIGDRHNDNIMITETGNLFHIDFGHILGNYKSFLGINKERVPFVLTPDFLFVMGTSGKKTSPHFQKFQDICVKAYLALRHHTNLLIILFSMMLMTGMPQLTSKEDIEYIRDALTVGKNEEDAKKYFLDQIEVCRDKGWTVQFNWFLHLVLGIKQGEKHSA
Sequence of Vps34 (Q8NEB9 whole entry, species assumed): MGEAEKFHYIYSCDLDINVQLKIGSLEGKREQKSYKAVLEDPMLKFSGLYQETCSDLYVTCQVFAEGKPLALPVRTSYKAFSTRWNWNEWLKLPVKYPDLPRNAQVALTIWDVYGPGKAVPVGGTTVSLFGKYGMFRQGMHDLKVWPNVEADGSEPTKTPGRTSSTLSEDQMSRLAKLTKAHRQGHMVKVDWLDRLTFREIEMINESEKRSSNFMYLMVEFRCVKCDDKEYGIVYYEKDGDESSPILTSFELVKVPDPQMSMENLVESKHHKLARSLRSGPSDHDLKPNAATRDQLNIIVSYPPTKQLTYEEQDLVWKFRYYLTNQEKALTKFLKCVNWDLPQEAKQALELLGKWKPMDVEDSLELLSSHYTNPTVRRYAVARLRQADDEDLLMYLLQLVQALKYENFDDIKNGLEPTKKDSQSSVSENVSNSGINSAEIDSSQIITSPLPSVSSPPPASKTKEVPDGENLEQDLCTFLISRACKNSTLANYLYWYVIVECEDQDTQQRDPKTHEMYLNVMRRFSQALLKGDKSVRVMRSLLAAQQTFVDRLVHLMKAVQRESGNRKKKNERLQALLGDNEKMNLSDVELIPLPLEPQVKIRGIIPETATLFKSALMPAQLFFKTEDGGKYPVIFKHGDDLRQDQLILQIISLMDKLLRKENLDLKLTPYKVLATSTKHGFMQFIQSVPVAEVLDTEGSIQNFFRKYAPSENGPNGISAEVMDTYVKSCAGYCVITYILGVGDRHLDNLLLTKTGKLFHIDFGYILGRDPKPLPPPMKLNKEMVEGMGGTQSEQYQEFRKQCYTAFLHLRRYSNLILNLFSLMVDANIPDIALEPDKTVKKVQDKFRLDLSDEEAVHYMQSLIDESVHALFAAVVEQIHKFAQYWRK
Sequence of PI 3-kinase beta (P42338 whole entry): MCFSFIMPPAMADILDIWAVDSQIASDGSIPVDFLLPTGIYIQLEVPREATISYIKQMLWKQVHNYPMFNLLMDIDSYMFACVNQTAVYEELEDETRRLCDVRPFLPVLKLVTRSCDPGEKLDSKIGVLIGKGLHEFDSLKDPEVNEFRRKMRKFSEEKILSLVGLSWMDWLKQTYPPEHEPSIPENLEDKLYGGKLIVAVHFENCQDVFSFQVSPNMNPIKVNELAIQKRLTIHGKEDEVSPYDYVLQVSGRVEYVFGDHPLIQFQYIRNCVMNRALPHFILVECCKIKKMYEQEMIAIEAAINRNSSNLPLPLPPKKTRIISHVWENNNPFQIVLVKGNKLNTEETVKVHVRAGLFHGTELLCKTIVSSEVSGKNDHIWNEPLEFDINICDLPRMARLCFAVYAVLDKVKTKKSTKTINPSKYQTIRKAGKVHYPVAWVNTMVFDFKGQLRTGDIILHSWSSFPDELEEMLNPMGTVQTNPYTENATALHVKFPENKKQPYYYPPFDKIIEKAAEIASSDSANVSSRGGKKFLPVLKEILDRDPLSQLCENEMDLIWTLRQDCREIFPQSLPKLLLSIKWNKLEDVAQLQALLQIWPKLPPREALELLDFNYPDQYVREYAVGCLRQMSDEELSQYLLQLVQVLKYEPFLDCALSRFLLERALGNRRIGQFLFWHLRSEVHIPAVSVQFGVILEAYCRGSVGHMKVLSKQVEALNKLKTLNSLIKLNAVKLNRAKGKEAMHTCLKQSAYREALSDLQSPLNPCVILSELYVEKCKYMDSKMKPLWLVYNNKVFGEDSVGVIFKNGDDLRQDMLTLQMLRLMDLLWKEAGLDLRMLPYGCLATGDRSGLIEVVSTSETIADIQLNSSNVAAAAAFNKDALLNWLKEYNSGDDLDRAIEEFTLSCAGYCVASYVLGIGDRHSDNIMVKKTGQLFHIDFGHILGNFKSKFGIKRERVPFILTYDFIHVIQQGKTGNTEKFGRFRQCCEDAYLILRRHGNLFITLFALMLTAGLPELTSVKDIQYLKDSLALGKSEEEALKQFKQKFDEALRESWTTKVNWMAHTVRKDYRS
Sequence of PI 3-kinase beta (P27986 461-568 partner): as the sequence (P27986 461-568 partner) above
Experimental for mTOR: Lanthascreen™ Kinase Binding Assay for mTOR (G)
Binding of an inhibitor to the kinase competes for binding with the tracer, resulting in a loss of FRET.
50 nL of compound dilutions were dispensed onto white 384-well small volume polystyrene plate.

Turning to `Cc1ccc(S(=O)(=O)NCC(C)(C)O)cc1-c1cnc(N)c(-c2cn(C)nc2C)n1` [Example 13], the IC50 at PI 4-kinase beta is 6500 nM; on Vps34, above 10000 nM; at mTOR, above 10000 nM; at PI 3-kinase beta it was 1090 nM.
On to `Cc1ncc(-c2nc(-c3cc(S(=O)(=O)NCCO)ccc3C)cnc2N)s1` [Example 45, 3-(5-Amino-6-(2-methylthiazol-5-yl)pyrazin-2-yl)-N-(2-hydroxyethyl)-4-methylbenzenesulfonamide], for which the IC50 was found to be 1600 nM at PI 4-kinase beta, 230 nM on PI 3-kinase delta (read-out: Assay F PI3Kδ IC50), 1100 nM on Vps34 and 530 nM at PI 3-kinase beta.
Take `Cc1ncc(-c2nc(-c3cc(S(=O)(=O)NCC4COCCN4C)ccc3C)cnc2N)s1` (stereo not drawn) [Example 45.12, 3-(5-Amino-6-(2-methylthiazol-5-yl)pyrazin-2-yl)-4-methyl-N-((4-methylmorpholin-3-yl)methyl)benzenesulfonamide]: the IC50 at PI 4-kinase beta is 1400 nM; at PI 3-kinase delta (read-out: Assay F PI3Kδ IC50), 100 nM; at Vps34, 2600 nM; at PI 3-kinase gamma, 15 nM; on PI 3-kinase beta it was 390 nM; on PI 3-kinase alpha, 50 nM.
Regarding `Cc1cc(-c2nc(-c3cc(S(=O)(=O)NCC(C)(C)O)ccc3C)cnc2N)on1` [Example 88, 3-(5-Amino-6-(3-methylisoxazol-5-yl)pyrazin-2-yl)-N-(2-hydroxy-2-methylpropyl)-4-methylbenzenesulfonamide], the IC50 at PI 4-kinase beta stood at 6100 nM; on PI 3-kinase delta (read-out: Assay F PI3Kδ IC50), 1100 nM; at PI 3-kinase beta, 2200 nM.
Consider `Cc1ccc(S(=O)(=O)NCC(C)(C)CO)cc1-c1cnc(N)c(-c2nc(C3CC3)no2)n1` [Example 93, 3-(5-Amino-6-(3-cyclopropyl-1,2,4-oxadiazol-5-yl)pyrazin-2-yl)-N-(3-hydroxy-2,2-dimethylpropyl)-4-methylbenzenesulfonamide], for which the IC50 at PI 4-kinase beta, at Vps34 and at mTOR was above 9100 nM each time.
For `Cc1ccc(S(=O)(=O)NCCC(C)(C)O)cc1-c1cnc(N)c(-c2ccnc(F)c2)n1` [Example 119.10], the IC50 was above 9100 nM on PI 4-kinase beta; 100 nM at PI 3-kinase delta (read-out: Assay F PI3Kδ IC50); above 9100 nM on Vps34; 6400 nM on mTOR; 30 nM at PI 3-kinase gamma; 6470 nM on PI 3-kinase beta. In addition, at PI 3-kinase alpha, the IC50 stood at 120 nM.
Regarding `Cc1ccc(S(=O)(=O)NCCC(C)(C)O)cc1-c1cnc(N)c(-c2cncnc2)n1` [Example 119.20], the IC50 at PI 4-kinase beta is above 9100 nM; on PI 3-kinase delta (read-out: Assay F PI3Kδ IC50), 2080 nM; at Vps34, above 9100 nM; at mTOR, 4820 nM; on PI 3-kinase gamma, 508 nM; on PI 3-kinase beta, above 9100 nM. Moreover, the IC50 at PI 3-kinase alpha is 1480 nM.
Take `Cc1nc(-c2nc(-c3cc(S(=O)(=O)NCCC(C)(C)O)ccc3C)cnc2N)cs1` [Example 119.30]: the IC50 at PI 4-kinase beta is 4710 nM; at PI 3-kinase delta (read-out: Assay F PI3Kδ IC50), 110 nM; at Vps34 it was above 9100 nM; at mTOR, 2880 nM; at PI 3-kinase gamma it was 13 nM; on PI 3-kinase beta, 1500 nM. Further, at PI 3-kinase alpha, the IC50 turned out to be 170 nM.
Consider `Cc1ncc(-c2nc(-c3cc(S(=O)(=O)NCCC(C)(C)O)ccc3C)cnc2N)o1` [Example 119.40], for which the IC50 was 6200 nM on PI 4-kinase beta; 180 nM on PI 3-kinase delta (read-out: Assay F PI3Kδ IC50); above 10000 nM on Vps34; above 10000 nM on mTOR; 23 nM at PI 3-kinase gamma; 3500 nM at PI 3-kinase beta. Moreover, the IC50 on PI 3-kinase alpha turned out to be 150 nM.
For `Cc1ccc(S(=O)(=O)N2CC(F)(F)C(F)(F)C2)cc1-c1cnc(N)c(-n2cncn2)n1` [Example 127.8], the IC50 on PI 4-kinase beta was above 10000 nM; on PI 3-kinase delta (read-out: Assay F PI3Kδ IC50) it was above 10000 nM; on Vps34, above 10000 nM; at mTOR, above 10000 nM; at PI 3-kinase gamma it was 1000 nM; at PI 3-kinase beta it was above 10000 nM. The IC50 on PI 3-kinase alpha was determined as 6000 nM.
As for `Cc1ccc(S(=O)(=O)NCCCCCO)cc1-c1cnc(N)c(-n2cncn2)n1` [Example 127.9], the half-maximal inhibitory concentration (IC50) is above 10000 nM at PI 4-kinase beta; 3000 nM at PI 3-kinase delta (read-out: Assay F PI3Kδ IC50); above 10000 nM on Vps34; above 10000 nM on mTOR; 1600 nM on PI 3-kinase gamma; above 10000 nM on PI 3-kinase beta. For the same molecule, on PI 3-kinase alpha, the IC50 was determined as 2300 nM.
Turning to `COCCCNS(=O)(=O)c1ccc(C)c(-c2cnc(N)c(-n3cncn3)n2)c1` [Example 127.10], the IC50 was above 10000 nM at PI 4-kinase beta; 5500 nM on PI 3-kinase delta (read-out: Assay F PI3Kδ IC50); above 10000 nM on Vps34; above 10000 nM at mTOR; 320 nM at PI 3-kinase gamma; 9200 nM at PI 3-kinase beta. In addition, on PI 3-kinase alpha, the IC50 came to 1700 nM.
Turning to `Cc1ccc(S(=O)(=O)NCC2(O)CCCCC2)cc1-c1cnc(N)c(-n2cncn2)n1` [Example 127.11], the IC50 at PI 4-kinase beta is above 10000 nM; on PI 3-kinase delta (read-out: Assay F PI3Kδ IC50), 760 nM; at Vps34, above 10000 nM; on mTOR, above 10000 nM; at PI 3-kinase gamma, 270 nM; at PI 3-kinase beta, 1300 nM. Moreover, the IC50 at PI 3-kinase alpha amounted to 980 nM.
Consider `Cc1ccc(S(=O)(=O)NCC2CCN(C)C2)cc1-c1cnc(N)c(-n2cncn2)n1` (stereo not drawn) [Example 127.18], for which the IC50 is above 10000 nM on PI 4-kinase beta; 380 nM at PI 3-kinase delta (read-out: Assay F PI3Kδ IC50); above 10000 nM on Vps34; above 10000 nM at mTOR; 1300 nM at PI 3-kinase gamma; 2400 nM at PI 3-kinase beta. At PI 3-kinase alpha, the IC50 stood at 1900 nM.
Regarding `Cc1ccc(S(=O)(=O)N[C@@H]2CCOC2)cc1-c1cnc(N)c(-n2cncn2)n1` [Example 127.20], the IC50 was 5300 nM on PI 4-kinase beta; 1700 nM on PI 3-kinase delta (read-out: Assay F PI3Kδ IC50); above 10000 nM at Vps34; above 10000 nM at mTOR; 130 nM at PI 3-kinase gamma; 5100 nM at PI 3-kinase beta. Further, the IC50 at PI 3-kinase alpha was 970 nM.
Consider `Cc1ccc(S(=O)(=O)NC2CCOC2=O)cc1-c1cnc(N)c(-n2cncn2)n1` (stereo not drawn) [Example 127.30], for which the IC50 is 7700 nM on PI 4-kinase beta; 1600 nM at PI 3-kinase delta (read-out: Assay F PI3Kδ IC50); above 10000 nM at Vps34; above 10000 nM on mTOR; 130 nM on PI 3-kinase gamma; 5300 nM on PI 3-kinase beta. The IC50 on PI 3-kinase alpha came out at 1900 nM.
Turning to `Cc1ccc(S(=O)(=O)NCC2(CO)CC2)cc1-c1cnc(N)c(-n2cncn2)n1` [Example 127.38], the IC50 at PI 4-kinase beta was 6700 nM; at PI 3-kinase delta (read-out: Assay F PI3Kδ IC50), 2800 nM; on Vps34, above 10000 nM; on mTOR it was above 10000 nM; at PI 3-kinase gamma, 100 nM; on PI 3-kinase beta it was 3500 nM. Besides, the IC50 at PI 3-kinase alpha stood at 540 nM.
In the case of `Cc1ccc(S(=O)(=O)NC[C@@H]2CCC(C)(C)O2)cc1-c1cnc(N)c(-n2cncn2)n1` [Example 127.40], the IC50 at PI 4-kinase beta is 7600 nM; against PI 3-kinase delta it was 1400 nM; on Vps34, above 10000 nM; at mTOR, above 10000 nM; on PI 3-kinase gamma, 140 nM; on PI 3-kinase beta it was 1500 nM. Further, the IC50 on PI 3-kinase alpha was 770 nM.
On to `Cc1ccc(S(=O)(=O)N[C@@H](C)CO)cc1-c1cnc(N)c(-n2cncn2)n1` [Example 127.41], for which the IC50 was 4200 nM at PI 4-kinase beta; 6600 nM at PI 3-kinase delta (read-out: Assay F PI3Kδ IC50); above 10000 nM at Vps34; above 10000 nM on mTOR; 270 nM at PI 3-kinase gamma; 3500 nM at PI 3-kinase beta. The IC50 on PI 3-kinase alpha came out at 1700 nM.
Turning to `Cc1ccc(S(=O)(=O)NC(C)CO)cc1-c1cnc(N)c(-n2cncn2)n1` (stereo not drawn) [Example 127.42], the IC50 was 7100 nM on PI 4-kinase beta; above 10000 nM at PI 3-kinase delta (read-out: Assay F PI3Kδ IC50); above 10000 nM on Vps34; above 10000 nM on mTOR; 800 nM at PI 3-kinase gamma; 5900 nM on PI 3-kinase beta. The IC50 on PI 3-kinase alpha came to 1700 nM.
Take `Cc1ccc(S(=O)(=O)NC(C)C(C)C)cc1-c1cnc(N)c(-n2cncn2)n1` (stereo not drawn) [Example 127.44]: the IC50 on PI 4-kinase beta is 6100 nM; at PI 3-kinase delta (read-out: Assay F PI3Kδ IC50), 1400 nM; at Vps34 it was above 10000 nM; at mTOR, 3700 nM; on PI 3-kinase gamma it was 120 nM; on PI 3-kinase beta, 2200 nM. In addition, on PI 3-kinase alpha, the IC50 stood at 730 nM.
As for `Cc1ccc(S(=O)(=O)NCC2(CO)CCC2)cc1-c1cnc(N)c(-n2cncn2)n1` [Example 127.49], the IC50 on PI 4-kinase beta is 4000 nM; at PI 3-kinase delta (read-out: Assay F PI3Kδ IC50), 320 nM; at Vps34, above 10000 nM; on mTOR, 7000 nM; at PI 3-kinase gamma, 13 nM; at PI 3-kinase beta, 460 nM. In addition, the IC50 on PI 3-kinase alpha came to 100 nM.
Regarding `Cc1ccc(S(=O)(=O)NCC2(CO)CCOCC2)cc1-c1cnc(N)c(-n2cncn2)n1` [Example 127.50], the half-inhibitory concentration (IC50) at PI 4-kinase beta is above 10000 nM; on PI 3-kinase delta (read-out: Assay F PI3Kδ IC50) it was 2100 nM; at Vps34, above 10000 nM; at mTOR, 5600 nM; on PI 3-kinase gamma it was 32 nM; on PI 3-kinase beta, 1400 nM. Moreover, the IC50 on PI 3-kinase alpha amounted to 840 nM.
For `Cc1ccc(S(=O)(=O)NC2CCSC2=O)cc1-c1cnc(N)c(-n2cncn2)n1` (stereo not drawn) [Example 127.51], the IC50 is 5300 nM at PI 4-kinase beta; 580 nM at PI 3-kinase delta (read-out: Assay F PI3Kδ IC50); above 10000 nM at Vps34; 5900 nM on mTOR; 65 nM on PI 3-kinase gamma; 1900 nM on PI 3-kinase beta. The IC50 at PI 3-kinase alpha is 600 nM.
